Source: ChEMBL document CHEMBL1201862, “PubChem BioAssay data set” (2004)
Calls of active or inactive are those of the source.

Legend:
[1] = target: T1, Microphthalmia-associated transcription factor (Homo sapiens, UniProt O75030); experiment: TRPM1 promoter luciferase signal decrease, dose response, MITF inhibitor project, cell-based, SK-MEL-5, cherry-picked, set 3 (AID 493073); type: functional
T1 sequence (O75030 whole entry): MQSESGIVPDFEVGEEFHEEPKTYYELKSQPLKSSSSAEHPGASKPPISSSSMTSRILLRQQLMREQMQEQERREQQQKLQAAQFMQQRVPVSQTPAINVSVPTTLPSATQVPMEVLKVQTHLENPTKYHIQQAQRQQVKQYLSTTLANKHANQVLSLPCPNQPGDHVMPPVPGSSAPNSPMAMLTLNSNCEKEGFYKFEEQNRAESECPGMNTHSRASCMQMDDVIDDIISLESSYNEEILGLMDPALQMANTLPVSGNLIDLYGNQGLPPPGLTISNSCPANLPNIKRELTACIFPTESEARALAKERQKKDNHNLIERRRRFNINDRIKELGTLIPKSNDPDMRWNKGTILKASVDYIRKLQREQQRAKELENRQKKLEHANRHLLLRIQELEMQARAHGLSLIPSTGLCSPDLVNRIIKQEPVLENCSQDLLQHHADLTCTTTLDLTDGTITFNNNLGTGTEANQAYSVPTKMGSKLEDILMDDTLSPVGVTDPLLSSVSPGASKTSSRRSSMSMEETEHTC

[2] = target: Tumor necrosis factor (Homo sapiens, UniProt P01375); experiment: TNFa-triggered NF-kB activation inhibitors, SAR follow-up, cell-based, revised (AID 2337); type: functional
Sequence of Tumor necrosis factor (P01375 whole entry, the tested form may be a part): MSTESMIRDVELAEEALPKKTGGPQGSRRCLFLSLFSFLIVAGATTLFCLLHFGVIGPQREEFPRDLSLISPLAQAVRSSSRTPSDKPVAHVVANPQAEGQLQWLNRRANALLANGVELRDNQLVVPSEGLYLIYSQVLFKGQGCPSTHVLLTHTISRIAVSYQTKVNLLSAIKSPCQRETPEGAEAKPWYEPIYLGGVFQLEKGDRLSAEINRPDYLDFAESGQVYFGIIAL

[3] = target: T2, Nucleotide-binding oligomerization domain-containing protein 1 (Homo sapiens, UniProt Q9Y239); experiment: NOD1 signaling inhibitors, SAR follow-up, revised (AID 2333); type: functional
T2 sequence (Q9Y239 whole entry): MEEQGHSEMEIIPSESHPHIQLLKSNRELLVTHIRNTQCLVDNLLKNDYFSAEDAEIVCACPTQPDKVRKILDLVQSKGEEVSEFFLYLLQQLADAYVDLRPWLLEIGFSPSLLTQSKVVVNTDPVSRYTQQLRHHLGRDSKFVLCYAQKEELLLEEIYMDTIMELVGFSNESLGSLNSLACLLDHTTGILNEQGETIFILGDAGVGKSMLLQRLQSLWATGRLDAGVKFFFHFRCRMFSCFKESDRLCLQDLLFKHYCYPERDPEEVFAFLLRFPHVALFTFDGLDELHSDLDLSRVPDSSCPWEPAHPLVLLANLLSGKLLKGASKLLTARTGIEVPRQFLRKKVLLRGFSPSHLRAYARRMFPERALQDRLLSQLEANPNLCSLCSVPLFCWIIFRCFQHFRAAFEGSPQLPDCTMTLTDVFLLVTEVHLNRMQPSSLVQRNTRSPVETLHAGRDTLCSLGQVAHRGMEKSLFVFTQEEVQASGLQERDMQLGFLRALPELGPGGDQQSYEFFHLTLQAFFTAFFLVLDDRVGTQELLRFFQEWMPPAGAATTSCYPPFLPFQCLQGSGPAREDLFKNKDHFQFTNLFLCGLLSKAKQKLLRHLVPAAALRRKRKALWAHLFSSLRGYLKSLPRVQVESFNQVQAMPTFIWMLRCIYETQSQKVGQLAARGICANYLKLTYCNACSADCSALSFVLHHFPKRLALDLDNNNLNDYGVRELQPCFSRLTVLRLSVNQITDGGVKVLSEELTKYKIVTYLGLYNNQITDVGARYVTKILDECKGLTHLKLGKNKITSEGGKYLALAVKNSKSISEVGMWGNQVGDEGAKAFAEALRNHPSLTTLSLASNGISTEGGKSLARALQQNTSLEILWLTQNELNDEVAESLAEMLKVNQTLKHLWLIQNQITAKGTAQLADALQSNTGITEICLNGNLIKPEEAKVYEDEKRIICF

[4] = target: T3, Heat shock factor protein 1 (Mus musculus, UniProt P38532); experiment: inhibition of MG132-induced HSE-luciferase signal, confirmation, cell-based, NIH3T3, luminescence, dose retest (AID 2382); type: functional;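 also: NIH3T3 fibroblasts with HSF1-driven luciferase reporter stressed by proteasome inhibitor MG132; luminescence from HSF1-driven luciferase expression after 8 hours of MG132 stress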
T3 sequence (P38532 whole entry): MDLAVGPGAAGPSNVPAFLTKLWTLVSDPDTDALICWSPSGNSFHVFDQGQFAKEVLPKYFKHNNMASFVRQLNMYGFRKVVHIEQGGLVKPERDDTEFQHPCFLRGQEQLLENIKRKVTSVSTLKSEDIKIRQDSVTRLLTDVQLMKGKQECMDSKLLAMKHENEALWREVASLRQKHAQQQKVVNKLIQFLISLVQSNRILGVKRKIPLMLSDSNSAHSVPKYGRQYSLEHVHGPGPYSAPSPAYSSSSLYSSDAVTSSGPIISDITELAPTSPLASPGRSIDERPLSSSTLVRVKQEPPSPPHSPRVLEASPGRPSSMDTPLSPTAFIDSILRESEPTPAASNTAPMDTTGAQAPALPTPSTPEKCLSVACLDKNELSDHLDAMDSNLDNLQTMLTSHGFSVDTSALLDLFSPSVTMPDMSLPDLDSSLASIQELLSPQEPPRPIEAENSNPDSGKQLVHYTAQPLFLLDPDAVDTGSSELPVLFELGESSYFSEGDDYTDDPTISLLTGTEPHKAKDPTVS

[5] = system: HEK293; experiment: cells; details: Homo sapiens
[6] = target: Peroxisome proliferator-activated receptor gamma/Nuclear receptor coactivator 2 (Homo sapiens, UniProt P37231); experiment: (§1) TR-FRET dose response biochemical High Throughput Screening assay for agonists of the steroid receptor coactivator 2 (SRC-2) recruitment by the peroxisome proliferator-activated receptor gamma (PPAR gamma): non-selective agonists. [Related pubchem assays: 1297, 1032 ]; type: functional
[7] = target: Peroxisome proliferator-activated receptor gamma/Nuclear receptor coactivator 1 (Homo sapiens, UniProt P37231); experiment: as §1, with “1 (SRC-1)” for “2 (SRC-2)”, “assays (depositor defined):AID1300, AID1808, AID504735, AID631]” for “assays: 1297, 1032 ]”; type: protein assay
[8] = target: Peroxisome proliferator-activated receptor gamma/Nuclear receptor coactivator 3 (Homo sapiens, UniProt P37231); experiment: as §1, with “3 (SRC-3)” for “2 (SRC-2)”, “1301 (Confirmation screen.), 1048 (Primary screen.)]” for “1297, 1032 ]”; type: functional
Sequence of Peroxisome proliferator-activated receptor gamma/Nuclear receptor coactivator 3 (P37231 whole entry): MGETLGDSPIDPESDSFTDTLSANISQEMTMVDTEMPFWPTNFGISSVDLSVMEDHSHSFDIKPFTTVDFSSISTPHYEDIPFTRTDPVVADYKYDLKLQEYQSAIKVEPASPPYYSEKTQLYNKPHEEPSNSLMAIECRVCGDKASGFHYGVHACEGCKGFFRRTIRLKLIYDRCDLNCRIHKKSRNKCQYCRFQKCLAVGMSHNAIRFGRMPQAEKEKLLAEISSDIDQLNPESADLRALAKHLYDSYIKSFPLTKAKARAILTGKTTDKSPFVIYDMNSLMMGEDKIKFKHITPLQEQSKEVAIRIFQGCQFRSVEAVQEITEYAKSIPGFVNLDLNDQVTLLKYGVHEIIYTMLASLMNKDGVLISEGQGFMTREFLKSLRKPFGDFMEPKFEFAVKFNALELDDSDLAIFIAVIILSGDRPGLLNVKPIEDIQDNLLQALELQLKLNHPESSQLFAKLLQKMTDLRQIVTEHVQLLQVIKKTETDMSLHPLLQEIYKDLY
Sequence of Peroxisome proliferator-activated receptor gamma/Nuclear receptor coactivator 3 (Q9Y6Q9 whole entry, further chain): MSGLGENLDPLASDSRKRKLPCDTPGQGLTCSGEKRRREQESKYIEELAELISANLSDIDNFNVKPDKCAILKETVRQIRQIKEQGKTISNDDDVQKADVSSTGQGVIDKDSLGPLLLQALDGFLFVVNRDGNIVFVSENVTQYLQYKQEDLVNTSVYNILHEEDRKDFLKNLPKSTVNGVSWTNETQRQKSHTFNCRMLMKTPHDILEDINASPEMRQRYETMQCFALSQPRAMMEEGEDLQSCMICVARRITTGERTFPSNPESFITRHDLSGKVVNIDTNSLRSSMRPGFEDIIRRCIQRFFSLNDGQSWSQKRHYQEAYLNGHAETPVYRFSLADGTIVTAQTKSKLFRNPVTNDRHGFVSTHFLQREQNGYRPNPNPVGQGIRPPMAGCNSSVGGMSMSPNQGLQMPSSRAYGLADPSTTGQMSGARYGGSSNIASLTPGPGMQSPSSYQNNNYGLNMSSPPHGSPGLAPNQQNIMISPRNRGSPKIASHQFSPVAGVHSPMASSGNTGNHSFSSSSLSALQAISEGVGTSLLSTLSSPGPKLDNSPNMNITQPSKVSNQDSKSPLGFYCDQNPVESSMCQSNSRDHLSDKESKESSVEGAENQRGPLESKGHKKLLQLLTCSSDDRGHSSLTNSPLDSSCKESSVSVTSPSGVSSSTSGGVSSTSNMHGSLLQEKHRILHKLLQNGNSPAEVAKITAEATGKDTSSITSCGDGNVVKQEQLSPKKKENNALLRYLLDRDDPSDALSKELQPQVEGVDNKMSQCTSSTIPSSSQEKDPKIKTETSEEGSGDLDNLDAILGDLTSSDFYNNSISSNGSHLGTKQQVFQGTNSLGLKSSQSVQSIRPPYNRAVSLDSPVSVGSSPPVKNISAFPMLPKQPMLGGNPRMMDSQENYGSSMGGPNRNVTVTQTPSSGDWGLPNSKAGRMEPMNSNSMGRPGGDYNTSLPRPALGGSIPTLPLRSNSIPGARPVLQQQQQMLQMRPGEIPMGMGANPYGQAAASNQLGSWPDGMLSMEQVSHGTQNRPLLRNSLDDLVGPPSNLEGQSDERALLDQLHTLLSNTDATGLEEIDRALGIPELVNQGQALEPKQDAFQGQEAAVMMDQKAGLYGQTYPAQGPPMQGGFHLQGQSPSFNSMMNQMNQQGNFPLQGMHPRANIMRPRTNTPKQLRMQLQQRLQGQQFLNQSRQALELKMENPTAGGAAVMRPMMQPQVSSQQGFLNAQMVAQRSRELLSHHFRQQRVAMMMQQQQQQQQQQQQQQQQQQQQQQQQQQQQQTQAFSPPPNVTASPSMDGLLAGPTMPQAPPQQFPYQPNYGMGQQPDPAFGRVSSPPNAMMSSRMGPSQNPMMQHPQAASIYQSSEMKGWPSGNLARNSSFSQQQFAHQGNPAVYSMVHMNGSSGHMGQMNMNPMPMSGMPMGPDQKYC

[9] = target: Voltage-gated inwardly rectifying potassium channel KCNH2 (Homo sapiens, UniProt Q12809); details: Potency;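 also: confirmatory quantitative high-throughput screen measuring inhibition of hERG channel activity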
Sequence of Voltage-gated inwardly rectifying potassium channel KCNH2 (Q12809 whole entry): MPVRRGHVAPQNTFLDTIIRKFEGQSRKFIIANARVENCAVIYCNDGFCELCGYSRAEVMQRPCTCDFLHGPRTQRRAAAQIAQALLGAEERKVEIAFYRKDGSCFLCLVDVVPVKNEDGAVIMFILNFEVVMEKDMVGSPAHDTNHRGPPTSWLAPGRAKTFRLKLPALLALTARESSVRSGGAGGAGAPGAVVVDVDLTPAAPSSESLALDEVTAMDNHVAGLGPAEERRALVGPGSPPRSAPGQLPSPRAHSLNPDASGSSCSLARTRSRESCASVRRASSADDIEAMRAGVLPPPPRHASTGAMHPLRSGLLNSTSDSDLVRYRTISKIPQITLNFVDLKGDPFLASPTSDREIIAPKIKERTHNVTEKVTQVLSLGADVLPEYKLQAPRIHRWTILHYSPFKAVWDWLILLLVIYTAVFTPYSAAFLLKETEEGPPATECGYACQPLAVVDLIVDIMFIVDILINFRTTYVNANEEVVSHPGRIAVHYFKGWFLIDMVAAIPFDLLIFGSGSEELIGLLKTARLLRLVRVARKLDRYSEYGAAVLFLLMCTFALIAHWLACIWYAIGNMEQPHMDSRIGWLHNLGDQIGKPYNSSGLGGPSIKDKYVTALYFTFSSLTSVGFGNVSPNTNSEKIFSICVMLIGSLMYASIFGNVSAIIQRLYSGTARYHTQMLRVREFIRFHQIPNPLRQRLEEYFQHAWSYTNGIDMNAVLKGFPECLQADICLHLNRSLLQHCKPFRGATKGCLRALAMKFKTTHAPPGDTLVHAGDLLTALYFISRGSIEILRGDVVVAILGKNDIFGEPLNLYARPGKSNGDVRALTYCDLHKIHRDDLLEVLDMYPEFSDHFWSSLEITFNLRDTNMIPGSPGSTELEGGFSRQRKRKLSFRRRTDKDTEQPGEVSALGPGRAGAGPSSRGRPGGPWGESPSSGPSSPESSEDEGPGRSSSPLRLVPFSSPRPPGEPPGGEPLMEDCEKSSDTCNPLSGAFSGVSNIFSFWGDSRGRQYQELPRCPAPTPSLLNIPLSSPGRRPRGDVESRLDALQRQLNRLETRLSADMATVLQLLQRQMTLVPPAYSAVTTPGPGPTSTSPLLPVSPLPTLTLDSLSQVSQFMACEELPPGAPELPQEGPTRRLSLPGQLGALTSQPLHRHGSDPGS

[10] = LGR2 antagonists, dose response, cell-based, HEK293, CRE-luciferase reporter, cherry pick, set 2 (AID 743343); type: functional;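 also: transfected cells were stimulated with diluted bursicon conditioned medium after compound addition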
[11] = system: HEK293; experiment: inhibitors of LMP1-driven NF-kB reporter, dose response, cell-based, HEK293, luciferase, cherry-pick (AID 588343); type: functional; details: Homo sapiens
[12] = MC4R antagonists, dose response, counter-screen for LGR2 antagonist project, cell-based, plate reader, cherry pick (AID 743444); type: functional;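 also: transfected HEK 293 cells stimulated with alpha-MSH peptide; potency of inhibitors of the alpha-MSH evoked signal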
[13] = target: Dual specificity tyrosine-phosphorylation-regulated kinase 1A (Rattus norvegicus, UniProt Q63470); type: biochemical, Homo sapiens
[14] = system: INS1; experiment: beta cell apoptosis inhibitors, cytokine rescue, dose response, luminescence, retest (AID 449756); type: functional, cell-based; details: Rattus norvegicus;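 also: cell death triggered by IL-1 beta plus TNF-alpha plus IFN-gamma mixture; protective hits raise ATP signal compared with cytokine alone wells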
[15] = system: Streptococcus sp. 'group A'; experiment: growth inhibition of control SK(-) GAS strain, dose response, counter-screen for streptokinase expression inhibitor project, luminescence, kanamycin, BacTiterGlo, confirmation (AID 1900); type: functional, organism-based
[16] = target: T4, SUMO-activating enzyme (Homo sapiens, UniProt Q9UBT2); experiment: inhibitors of in vitro SUMOylation cascade, primary screen, biochemical, HTRF, uHTS (AID 2006); type: protein-complex assay
T4 sequence (Q9UBE0 whole entry): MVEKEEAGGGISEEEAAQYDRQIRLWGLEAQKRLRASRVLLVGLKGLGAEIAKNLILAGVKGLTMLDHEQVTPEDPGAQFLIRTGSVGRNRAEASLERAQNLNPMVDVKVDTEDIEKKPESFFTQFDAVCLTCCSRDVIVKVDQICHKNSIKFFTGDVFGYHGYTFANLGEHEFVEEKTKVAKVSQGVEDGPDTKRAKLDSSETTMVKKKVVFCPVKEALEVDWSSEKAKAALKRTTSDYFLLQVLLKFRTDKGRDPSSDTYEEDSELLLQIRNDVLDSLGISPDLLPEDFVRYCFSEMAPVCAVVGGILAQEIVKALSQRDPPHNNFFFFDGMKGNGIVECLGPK
T4 sequence (Q9UBT2 whole entry): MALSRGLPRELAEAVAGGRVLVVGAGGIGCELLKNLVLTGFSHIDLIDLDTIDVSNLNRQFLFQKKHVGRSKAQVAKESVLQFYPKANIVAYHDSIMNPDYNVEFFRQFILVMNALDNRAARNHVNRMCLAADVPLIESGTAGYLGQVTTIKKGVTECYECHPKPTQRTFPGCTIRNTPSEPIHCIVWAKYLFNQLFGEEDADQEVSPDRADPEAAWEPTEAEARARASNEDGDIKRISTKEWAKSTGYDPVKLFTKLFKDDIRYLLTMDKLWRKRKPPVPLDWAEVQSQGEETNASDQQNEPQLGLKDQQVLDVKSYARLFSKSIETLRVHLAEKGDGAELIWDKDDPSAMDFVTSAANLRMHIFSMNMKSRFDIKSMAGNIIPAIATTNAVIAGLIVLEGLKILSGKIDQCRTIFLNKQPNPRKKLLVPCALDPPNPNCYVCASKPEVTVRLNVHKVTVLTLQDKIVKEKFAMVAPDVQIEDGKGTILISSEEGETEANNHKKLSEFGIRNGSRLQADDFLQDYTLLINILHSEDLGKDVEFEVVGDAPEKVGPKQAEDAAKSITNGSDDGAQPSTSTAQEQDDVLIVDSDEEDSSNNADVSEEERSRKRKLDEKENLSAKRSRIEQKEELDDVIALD

[17] = target: T4, SUMO-activating enzyme; experiment: SUMOylation inhibitor hit validation, confirmation, SUMOylation inhibitor project, biochemical, AlphaScreen (AID 2018); type: functional
[18] = target: T3, Heat shock factor protein 1; experiment: HSF1 potentiators in luciferase reporter cells, confirmation, cell-based, NIH3T3, luminescence, dose retest (AID 435004); type: functional;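 also: stress induced by proteasome inhibitor MG132 added 30 min after compound; luciferase reporter driven by HSF1 response element in NIH3T3 cells; actives raise luminescence as potentiators of the MG132 stress response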
[19] = target: T5, Endoribonuclease toxin MazF (Escherichia coli K-12, UniProt P0AE70); experiment: MazF toxin RNase activators, dose response, biochemical, fluorescence, single-stranded RNA substrate, uHTS hits (AID 588481); type: functional
T5 sequence (P0AE70 whole entry): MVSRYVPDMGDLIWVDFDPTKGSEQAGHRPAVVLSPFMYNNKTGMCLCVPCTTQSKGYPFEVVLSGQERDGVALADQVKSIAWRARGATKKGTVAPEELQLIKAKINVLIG

[20] = system: Streptococcus; experiment: Group A Streptococcus viability loss, dose response, counter-screen for streptokinase expression inhibitor project, luminescence, BacTiterGlo (AID 1915); type: functional, organism-based;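 also: potency for reduction of bacterial viability or growth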
[21] = target: T5, Endoribonuclease toxin MazF; experiment: fluorescent RNA oligo signal without MazF, dose response, counter-screen for MazEF activator project, biochemical, fluorescence, single-stranded RNase substrate (AID 588502); type: functional

COCCn1c(C)cc(C(=O)COC(=O)c2ccccc2Br)c1C
AC50 [1]: 1.14 µM (active)
IC50 [2]: < 0.0391 µM (active)
IC50 [3]: 11.3 µM (active)
EC50 [4]: < 0.16 µM (active)
IC50 [5]: > 20 µM (inactive)

COCCNC(=O)CSc1cc(=O)n(C)c2cc(Cl)ccc12
EC50 [6]: > 79.4 µM (not active)
EC50 [7]: > 79.4 µM (inactive)
EC50 [8]: > 79.4 µM (not active)

NCC(O)C1CCCCCCC1 (stereo not drawn)
AC50 [9]: 15.8 µM (inconclusive)

O=C(Nc1cccc(C(=O)O)c1)Nc1ccccc1Cl
AC50 [10]: 2.75 µM (active)
AC50 [11]: 4.97 µM (active)
AC50 [12]: 4.29 µM (active)

NC(=S)NN=Cc1nccc2c(N)cccc12
AC50 [11]: 1.55 µM (active)

COC(=O)c1oc2ccc(OC)cc2c1N
AC50 [13]: 1.56 µM (active)

O=C1C([N-]S(=O)(=O)c2cccs2)=C([n+]2cccc(Cc3ccccc3)c2)C(=O)c2ccccc21
AC50 [14]: 2.69 µM (active)
EC50 [15]: 1.53 µM (active)
IC50 [16]: 12.9 µM (active)
IC50 [17]: 9.51 µM (active)
EC50 [18]: > 260 µM (inactive)
EC50 [19]: > 99 µM (inactive)
EC50 [20]: 1.6 µM (active)
EC50 [21]: 36.5 µM (inactive)

O=C(O)C1=CCCN(CCON=C(c2ccccc2)c2ccccc2)C1
AC50 [9]: 35.5 µM (inconclusive)
